Results taken from article PMC4556830, “The Effect of MGCD0103 on CYP450 Isoforms Activity of Rats by Cocktail Method” (BioMed Research International, 2015).

Assay: Pharmacokinetics of six cocktail probe drugs in rat plasma (UPLC-MS/MS) after 7-day MGCD0103 or saline
Conditions: for Cmax / half-life: Sprague-Dawley, rat, po; for Cmax: C max; for difference for AUC, t 1/2 between high dosage group and control group: p > 0.05
Experimental: The compounds were analyzed by a UPLC-MS/MS with ACQUITY I-Class UPLC and a XEVO TQD triple quadrupole mass spectrometer that was equipped with an electrospray ionization (ESI) interface (Waters Corp., Milford, MA, USA). The UPLC system included a Sample Manager with Flow-Through Needle (SM-FTN) and a Binary Solvent Manager (BSM). Data acquisition and instrument control were performed on the MassLynx 4.1 software (Waters Corp., Milford, MA, USA).
The initial mobile phase consisted of 0.1% formic acid and acetonitrile with gradient elution at a flow rate of 0.4 mL/min and an injection volume of 2 μL. […] The total run time of the analysis was 3 min.
The mass spectrometric detection was performed in a positive mode. Nitrogen was used as the cone gas (50 L/h) and desolvation gas (1000 L/h). The mass conditions were set as follows: source temperature 150°C, capillary voltage 2.5 kV, and desolvation temperature 500°C.
Forty rats (220 ± 20 g) were randomly divided into four different dosages of MGCD0103 groups (Low group, Medium group, High group, and control group with 10 rats in each group). MGCD0103 was dissolved in corn oil as suspension at three different concentrations (20, 40, and 80 mg/mL). Three different MGCD0103 groups (Low group, Medium group, and High group) were respectively given MGCD0103 20, 40, and 80 mg/kg one time by intragastric administration at every morning and last for 7 days. Control group were given saline by same administration method.
100 μL of plasma was obtained from blood sample after centrifugation at 4000 g for 10 min. In a 1.5 mL centrifuge tube, 200 μL of acetonitrile (containing 50 ng/mL IS) was added into 100 μL of collected plasma sample. […] Then supernatant (2 μL) was injected into the UPLC-MS/MS system for analysis.
Concentration of plasma probe drugs versus time was analyzed by Version 3.0 Data Analysis System (Wenzhou Medical University, China). The main pharmacokinetic parameters of the MGCD0103 group and control group were analyzed by SPSS l8.0 statistical software.

[1] = Control group: saline i.g. 7 days (no MGCD0103), then probe 10 mg/kg (tolbutamide 1 mg/kg) i.g., rat plasma, mean ± SD, n = 10
[2] = High group: MGCD0103 80 mg/kg i.g. 7 days, then probe 10 mg/kg (tolbutamide 1 mg/kg) i.g., rat plasma, mean ± SD, n = 10
[3] = Low group: MGCD0103 20 mg/kg i.g. 7 days, then probe 10 mg/kg (tolbutamide 1 mg/kg) i.g., rat plasma, mean ± SD, n = 10
[4] = Medium group: MGCD0103 40 mg/kg i.g. 7 days, then probe 10 mg/kg (tolbutamide 1 mg/kg) i.g., rat plasma, mean ± SD, n = 10
[5] = high dosage MGCD0103 group vs control
[6] = high dosage MGCD0103 group vs control, p < 0.05

SMILES	AUC(0–t) [1] [ng/mL∗h]	AUC(0–∞) [1] [ng/mL∗h]	AUC(0–t) [2]	AUC(0–∞) [2]	AUC(0–t) [3] [ng/mL∗h]	AUC(0–∞) [3] [ng/mL∗h]	AUC(0–t) [4] [ng/mL∗h]	AUC(0–∞) [4] [ng/mL∗h]	Cmax (in vivo, 10 mg/kg) [ng/mL]	half-life (in vivo, 10 mg/kg, t 1/2) [h]	difference for AUC, t 1/2 between high dosage group and control group [5]	half-life (in vivo, t 1/2) [h]	CL [1] [L/h/kg]	CL [2]	CL [3] [L/h/kg]	CL [4] [L/h/kg]	V [1] [L/kg]	V [2] [L/kg]	V [3] [L/kg]	V [4] [L/kg]	further results
CC(NC(C)(C)C)C(=O)c1cccc(Cl)c1 (stereo not shown) [Bupropion]	144.8 ± 94.1	146.7 ± 95.1	218.2 ± 460.8 ng/mL∗h	235.2 ± 502.8 ng/mL∗h	282.5 ± 403.2	324.2 ± 506.3	120.4 ± 45.1	122.3 ± 45.2	157 ± 179	0.8 ± 0.4	no significant difference										
COCCc1ccc(OCC(O)CNC(C)C)cc1 (stereo not shown) [Metoprolol]	709.2 ± 255.8	724.2 ± 255.8	1031.8 ± 1261.2 ng/mL∗h	1046.4 ± 1258.4 ng/mL∗h	698.1 ± 348.6	703.8 ± 351.6	836.1 ± 499.8	843.7 ± 498.4			no significant difference	0.8 ± 0.1									
COc1ccc2[nH]c([S+]([O-])Cc3ncc(C)c(OC)c3C)nc2c1 (stereo not shown) [Omeprazole]	503.8 ± 199.4	528.0 ± 190.0	676.8 ± 1111.6 ng/mL∗h	731.8 ± 1098.8 ng/mL∗h	700.1 ± 910.2	704.9 ± 909.5	526.1 ± 251.2	539.1 ± 252.5	556 ± 646		no significant difference		21.2 ± 7.6	31.8 ± 19.0 L/h/kg	29.1 ± 16.6	22.3 ± 10.0					half-life (plasma, 10 mg/kg, t 1/2, Control group: saline i.g. 7 days (no MGCD0103), then probe 10 mg/kg (tolbutamide 1 mg/kg) i.g., rat plasma, mean ± SD, n = 10): 1.4 ± 1 h
CCOc1ccc(NC(C)=O)cc1 [Phenacetin]	3831.2 ± 2840.9	3833.6 ± 2839.3	2869.8 ± 3189.9 ng/mL∗h	2871.9 ± 3189.0 ng/mL∗h	2973.6 ± 1807.0	2975.9 ± 1806.6	2910.1 ± 1758.5	2918.2 ± 1751.4	2880 ± 1630	0.6 ± 0.4	no significant difference										
C[C@]12CC[C@H]3[C@@H](CCC4=CC(=O)CC[C@@]43C)[C@@H]1CC[C@@H]2O [Testosterone]	85.9 ± 40.6	89.9 ± 43.9	490.7 ± 1044.2 ng/mL∗h	524.5 ± 1042.4 ng/mL∗h	404.5 ± 908.2	417.2 ± 927.8	81.3 ± 28.8	106.5 ± 45.1			no significant difference		143.8 ± 89.6	64.9 ± 33.4^∗ L/h/kg	104.8 ± 49.0	109.0 ± 43.8	161.1 ± 82.2	254.0 ± 291.0	259.1 ± 168.6	253.2 ± 204.3	Cmax (in vivo, 10 mg/kg, Control group: saline i.g. 7 days (no MGCD0103), then probe 10 mg/kg (tolbutamide 1 mg/kg) i.g., rat plasma, mean ± SD, n = 10): 88.1 ± 54.2 ng/mL; Cmax (in vivo, 10 mg/kg, High group: MGCD0103 80 mg/kg i.g. 7 days, then probe 10 mg/kg (tolbutamide 1 mg/kg) i.g., rat plasma, mean ± SD, n = 10): 462 ± 1030 ng/mL; Cmax (in vivo, 10 mg/kg, Low group: MGCD0103 20 mg/kg i.g. 7 days, then probe 10 mg/kg (tolbutamide 1 mg/kg) i.g., rat plasma, mean ± SD, n = 10): 302 ± 631 ng/mL; Cmax (in vivo, 10 mg/kg, Medium group: MGCD0103 40 mg/kg i.g. 7 days, then probe 10 mg/kg (tolbutamide 1 mg/kg) i.g., rat plasma, mean ± SD, n = 10): 93.2 ± 75.3 ng/mL; half-life (in vivo, 10 mg/kg, t 1/2, Control group: saline i.g. 7 days (no MGCD0103), then probe 10 mg/kg (tolbutamide 1 mg/kg) i.g., rat plasma, mean ± SD, n = 10): 1 ± 0.6 h; half-life (in vivo, 10 mg/kg, t 1/2, High group: MGCD0103 80 mg/kg i.g. 7 days, then probe 10 mg/kg (tolbutamide 1 mg/kg) i.g., rat plasma, mean ± SD, n = 10): 4 ± 7.1 h; half-life (in vivo, 10 mg/kg, t 1/2, Low group: MGCD0103 20 mg/kg i.g. 7 days, then probe 10 mg/kg (tolbutamide 1 mg/kg) i.g., rat plasma, mean ± SD, n = 10): 1.7 ± 0.8 h; half-life (in vivo, 10 mg/kg, t 1/2, Medium group: MGCD0103 40 mg/kg i.g. 7 days, then probe 10 mg/kg (tolbutamide 1 mg/kg) i.g., rat plasma, mean ± SD, n = 10): 2.2 ± 2.4 h; change of CL versus control group [6]: shortened
CCCCNC(=O)NS(=O)(=O)c1ccc(C)cc1 [Tolbutamide]	88701.2 ± 19274.8	89852.0 ± 19168.1	64052.9 ± 15988.6^∗ ng/mL∗h	64353.2 ± 15998.9^∗ ng/mL∗h	82724.8 ± 13265.9	83176.9 ± 13264.2	72448.6 ± 14850.4	72761.4 ± 14754.7				5.2 ± 1.2					0.088 ± 0.019	0.099 ± 0.020	0.090 ± 0.014	0.093 ± 0.010	change of AUC(0–t) versus control group [6]: decreased; change of CL versus control group [6]: increased
